Reference: US4806532A, “Inhibition of epithelial phosphate transport” (Mayo Foundation for Medical Education and Research, priority 1985, dated 1989)
“Also recorded” adds a separate entry of the source. Each block holds one molecule with its values, some of them ahead of it.

How the values were obtained:
Na-Pi cotransporter = biological target: T1, Na-Pi cotransporter (Rattus norvegicus, UniProt Q06496); assay: Na+-gradient-dependent 32Pi uptake by renal cortical BBMV (rapid filtration); format: biochemical
T1 construct: from tissue; host or cells: rat renal cortex, brush border membrane vesicles
T1 sequence (Q06496 1-637): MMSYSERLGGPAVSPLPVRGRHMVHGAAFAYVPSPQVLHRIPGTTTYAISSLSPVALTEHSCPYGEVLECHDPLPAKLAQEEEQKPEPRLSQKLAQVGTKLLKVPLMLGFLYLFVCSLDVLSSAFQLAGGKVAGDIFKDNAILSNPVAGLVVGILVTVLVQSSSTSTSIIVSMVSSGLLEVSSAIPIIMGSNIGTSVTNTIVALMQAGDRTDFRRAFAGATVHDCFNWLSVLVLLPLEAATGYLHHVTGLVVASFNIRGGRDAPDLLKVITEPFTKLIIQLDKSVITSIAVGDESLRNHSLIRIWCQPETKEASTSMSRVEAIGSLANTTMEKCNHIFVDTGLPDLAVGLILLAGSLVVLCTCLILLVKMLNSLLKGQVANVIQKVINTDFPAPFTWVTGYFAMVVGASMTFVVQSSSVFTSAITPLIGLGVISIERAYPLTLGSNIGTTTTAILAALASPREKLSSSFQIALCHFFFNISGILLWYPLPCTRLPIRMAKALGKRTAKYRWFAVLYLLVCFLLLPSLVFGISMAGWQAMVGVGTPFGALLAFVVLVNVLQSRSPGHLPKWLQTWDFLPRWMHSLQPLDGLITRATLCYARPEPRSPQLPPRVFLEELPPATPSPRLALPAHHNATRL
Description: (§1) The brush border membrane vesicles (BBMV) were prepared from renal cortical tissue of adult male Sprague-Dawley rats of an average body weight of about 220 grams. Rats were fed ad libitum standard rat chow containing 0.7% Pi and had free access to distilled water. Rats were sacrificed under anesthesia and dissected renal cortical tissue was used for preparation of BBMV fraction by the divalent cation-precipitation procedure, employed and described in detail in J. Clin. Invest., 67, 1347 (1981) and J. Biol. Chem., 258, 5695 (1983), with the following modifications: (a) MgCl2 instead of CaCl2 was added to crude homogenate (final concentration 10 mM MgCl2) to precipitate membranes other than BBMV; (b) in the final step, BBMV were washed and equilibrated in a medium of pH=7.5, instead of pH=8.5. The enrichment and specific activities of typical BBM enzymes alkaline phosphatase (APases), γ-glutyamyl transferase (γ-GTT), leucineaminopeptidase (LAP) and maltase with use of these modifications were similar as in BBMV fractions prepared in our previous studies. As a final step in the preparative procedure, the BBMV fraction was washed and resuspended in a medium containing 300 mM mannitol and 5 mM Tris-HEPES adjusted to pH=t.5, referred to as "MTH-medium," unless specified otherwise. The analogous BBMV fractions, using the same procedure, were prepared from renal cortices of mongrel dogs, albino mice and New Zealand albino rabbits.
The BBMV uptake of ^32 Pi, D-[^3 H]-glucose, L-[^3 H]-proline and ^22 Na^+ was measured by means of a rapid filtration technique, as described in J. Clin. Invest., 67, 1347 (1981) and Am. J. Physiol., 246, F133-F139 (1984). Also, unless specified otherwise, the medium for the solute uptake assay consisted of following compounds (in final concentrations): 100 mM mannitol, 100 mM NaCl (or 100 mM KC1) and 5 mM Tris-HEPES (pH=7.5) and eitehr 0.1 mM K2 H^32 PO4, or 0.05 mM D-[^3 H]-glucose, or 0.025 mM L-[^3 H]-proline. IN the ^22 Na^+ uptake studies, the assay medium contained 100 mM ^22 NaCl (^22 NaCl about […] per tube), 100 mM mannitol and 5 mM Tris-HEPES (pH 7.5).
In most experiments, the Na^+ -gradient-dependent ^32 Pi uptake in the concentrative "uphill" phase was measured at 20 seconds period. Since Na^+ -independent Pi uptake in this time period was quantitatively minor component (<5%) of the Na^+ -gradient-dependent Pi uptake, it was not routinely subtracted.

[1] = Hydrolysis of phosphono-compounds (release of Pi) in the BBMV assay; conditions: 1 mM; hydrolysis to release more than 5% Pi
Excerpt: Compounds studied in the present experiments which inhibited BBM transport of Pi without hydrolysis to release more than 5% Pi are listed in Table 1.

[2] = test system: diffusional uptake of ^22 Na^+ by BBMV; assay: Diffusional uptake of 22Na+ by renal BBMV; format: biochemical, rat; conditions: 1 mM
Description: as §1, with “As a final step in the preparative procedure, the BBMV fraction was washed and resuspended in a medium containing 300 mM mannitol and 5 mM Tris-HEPES adjusted to pH=t.5, referred to as "MTH-medium," unless specified otherwise. The analogous BBMV fractions, using the same procedure, were prepared from renal cortices of mongrel dogs, albino mice and New Zealand albino rabbits.” left out
(§2) The BBMV uptake of ^32 Pi, D-[^3 H]-glucose, L-[^3 H]-proline and ^22 Na^+ was measured by means of a rapid filtration technique, as described in J. Clin. Invest., 67, 1347 (1981) and Am. […]

[3] = test system: D-[^3 H]-glucose uptake by BBMV; assay: Na+-gradient-dependent uptake of D-[3H]-glucose by renal BBMV; format: biochemical, rat; conditions: initial uptake 15 sec, FIG. 2
Description: as §1, with “As a final step in the preparative procedure, the BBMV fraction was washed and resuspended in a medium containing 300 mM mannitol and 5 mM Tris-HEPES adjusted to pH=t.5, referred to as "MTH-medium," unless specified otherwise. The analogous BBMV fractions, using the same procedure, were prepared from renal cortices of mongrel dogs, albino mice and New Zealand albino rabbits.” left out
as §2

[4] = test system: L-[^3 H]-proline uptake by BBMV; assay: Na+-gradient-dependent uptake of L-[3H]-proline by renal BBMV; format: biochemical, rat; conditions: initial uptake 15 sec, FIG. 2
Description: as §1, with “As a final step in the preparative procedure, the BBMV fraction was washed and resuspended in a medium containing 300 mM mannitol and 5 mM Tris-HEPES adjusted to pH=t.5, referred to as "MTH-medium," unless specified otherwise. The analogous BBMV fractions, using the same procedure, were prepared from renal cortices of mongrel dogs, albino mice and New Zealand albino rabbits.” left out
as §2

Compound: NCCP(=O)(O)O [2-aminoethylphosphonic acid, reference compound]
effect on Na+-gradient uptake of Pi by renal BBMV (in words) (Na-Pi cotransporter): lacked the inhibitory effect

Note: hydrolysis [1]: no
inhibition at 1000 µM (Na-Pi cotransporter; 1 mM, initial uptake at 20 sec, rat kidney cortex BBMV, read-out: Δ% (inhibition as percent decrease from control) of Na+-gradient-dependent 32Pi uptake): -27%
Compound: CC(O)(P(=O)(O)O)P(=O)(O)O [EHDP, disodium ethane-1-hydroxy-1,1-diphosphonate, reference compound]

inhibition at 5000 µM (Na-Pi cotransporter; 5 mM, initial uptake at 20 sec, rat kidney cortex BBMV, read-out: Δ% (inhibition as percent decrease from control) of Na+-gradient-dependent 32Pi uptake): -21%
Compound: O=P(O)(O)CP(=O)(O)O [MDP, Methylenediphosphonic acid, reference compound]

Compound: O=C(O)P(=O)(O)O [PFA, phosphonoformic acid]
22Na+ uptake 120 min ([2]; equilibrium, control 166 ± 25): 192 ± 30 nmoles/mg protein
22Na+ uptake 20 sec ([2]; mean ± SEM of 3 experiments, control 42 ± 4): 45 ± 3 nmoles/mg protein
effect on Na+-gradient-dependent uptake of D-[3H]-glucose [3]: no inhibitory effect
effect on Na+-gradient-dependent uptake of L-[3H]-proline [4]: no inhibitory effect

Compound: O=C(O)CCP(=O)(O)O [PPA, phosphonopropionic acid, reference compound]
effect on Na+-gradient uptake of Pi by renal BBMV (in words) (Na-Pi cotransporter): inactive

Compound: O=P(O)(O)CO [hydroxymethylphosphonic acid, reference compound]
effect on Na+-gradient uptake of Pi by renal BBMV (in words) (Na-Pi cotransporter): without effect; also recorded: lacked the inhibitory effect

Compound: O=P(O)(O)c1ccccc1 [phenylphosphonic acid, reference compound]
effect on Na+-gradient uptake of Pi by renal BBMV (in words) (Na-Pi cotransporter): without effect; also recorded: lacked the inhibitory effect

Compound: COC(=O)CP(=O)(OC)OC [trimethylester of PAA, reference compound]
effect on Na+-gradient uptake of Pi by renal BBMV (in words) (Na-Pi cotransporter): without inhibitory effort

Compound: COC(=O)P(=O)(OC)OC [trimethylester of TPFA, reference compound]
effect on Na+-gradient uptake of Pi by renal BBMV (in words) (Na-Pi cotransporter): without inhibitory effort
